Patent publication US20160340327A1, “PROCESS FOR PREPARING AMORPHOUS CABAZITAXEL” (SHILPA MEDICARE LIMITED, priority 2012, published 2016)

Key:
[1] = Storage stability of the solid form; type: physicochemical; conditions: storage for longer time; no conditions or data printed
[2] = description from the drug label; cited from earlier work

Row | stability on handling and storage (morphology and physicochemical characteristics) [1] | Compound | solubility in water [2]
1 | quite stable | CO[C@H]1C(=O)[C@@]2(C)C([C@H](OC(=O)c3ccccc3)[C@]3(O)C[C@H](OC(=O)[C@H](O)[C@H](NC(=O)OC(C)(C)C)c4ccccc4)C(C)=C1C3(C)C)[C@]1(OC(C)=O)CO[C@@H]1C[C@@H]2OC (some centres unmarked) | –
2 | – | CO[C@H]1C(=O)[C@]2(C)[C@@H](OC)C[C@H]3OC[C@@]3(OC(C)=O)[C@H]2[C@H](OC(=O)c2ccccc2)[C@]2(O)C[C@H](OC(=O)[C@H](O)[C@@H](NC(=O)OC(C)(C)C)c3ccccc3)C(C)=C1C2(C)C [Cabazitaxel, (2α,5β,7β,10β,13α)-4-acetoxy-13-({(2R,3S)-3[(tert-butoxycarbonyl)amino]-2-hydroxy-3-phenylpropanoyl}oxy)-1-hydroxy-7,10-dimethoxy-9-oxo-5,20-epoxytax-11-en-2-yl benzoate] | practically insoluble in water
